Laboratory results taken from US11813338B2, “Diagnosing and treating cancer” (The Trustees of the University of Pennsylvania, priority 2013, dated 2023).

How the values were obtained:
[1] = test system: MDA-MB-231 cells; test: Fluorescent confocal microscopy, subcellular localization; type: cell-based, human; settings: 2 μM
Method: (§1) Immunofluorescence studies confirmed the specificity of ChoKα binding (FIG. 7). […] Cells were treated with a Rabbit polyclonal antibody to human ChoKα followed by a Texas Red Goat Anti-Rabbit IgG secondary antibody. Confocal images were taken using a Leica DMI6000 B microscope with channels for Texas Red (Ex: 594 nm, Em: 600-630 nm), and JAS239 (Ex: 633 nm, Em: 728-800 nm).

[2] = test system: ChoK; test: ChoK activity by 14C-labeled choline uptake, TLC/autoradiography, in MDA-MB-231 cells; type: cell-based, human; settings: for ChoK inhibition (PC production as % control): MDA-MB-231 cells, increasing concentrations, 14 h following 14C-choline addition; for IC50 of ChoK inhibition: relative to positive control MN58b
Method: ChoK activity was assessed in triple-negative MDA-MB-231 breast cancer cells and in non-transformed MCF10a breast epithelial cells using ^14C-labeled choline uptake.
MDA-MB-231 cells and non-malignant MCF-10a cells were incubated for 14 hr with JAS239 and analyzed by TLC/autoradiography after ^14C-choline labeling.
MDA-MB-231 cells were incubated with increasing concentrations of JAS239 or JAS240. 14 h following ^14C-choline addition, cells were extracted for TLC/autoradiography analysis. […] MN58b was used as positive control.

[3] = test system: MDA-MB-231 cells; test: Fluorimetry of probe uptake in MDA-MB-231 cells; type: cell-based, human
Method: MDA-MB-231 cells were incubated with JAS239 and the fluorescence measured (Excitation 640 nm, Emission 770 nm).
(§2) MDA-MB-231 cells were treated for 2 hr with or without 10 μM JAS239 in the presence of varying concentrations of choline. Autoradiography was used to estimate phosphorylation of ^14C-labeled choline. Fluorimetry was performed under the same cellular conditions for estimation of probe uptake (Excitation 640 nm, Emission 770 nm). These values represent a ratio of JAS239 treated vs. untreated cells, and are reported relative to control.

[4] = target: T1, ChoK (Homo sapiens, UniProt P35790); test: Choline competition: phosphorylation of 14C-labeled choline with varying choline concentrations; type: cell-based; settings: MDA-MB-231 cells, 2 hr, 10 μM
T1 construct: endogenous in cells; host or cells: MDA-MB-231 (and MCF10a) cells
T1 sequence (P35790 whole entry): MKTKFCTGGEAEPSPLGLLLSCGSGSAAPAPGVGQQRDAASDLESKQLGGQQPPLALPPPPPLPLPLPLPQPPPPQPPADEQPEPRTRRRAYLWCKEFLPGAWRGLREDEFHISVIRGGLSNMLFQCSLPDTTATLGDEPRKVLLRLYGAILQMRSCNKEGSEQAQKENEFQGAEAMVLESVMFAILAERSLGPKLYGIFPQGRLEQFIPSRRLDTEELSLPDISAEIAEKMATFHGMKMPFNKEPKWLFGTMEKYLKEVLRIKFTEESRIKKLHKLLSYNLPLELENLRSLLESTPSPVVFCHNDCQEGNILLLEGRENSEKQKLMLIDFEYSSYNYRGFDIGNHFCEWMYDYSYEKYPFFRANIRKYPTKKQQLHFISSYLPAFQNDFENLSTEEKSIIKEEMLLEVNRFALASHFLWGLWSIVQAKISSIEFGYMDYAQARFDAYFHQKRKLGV
Method: as §2

[5] = target: T2, human ChoKα (Homo sapiens, UniProt P35790); test: Immunofluorescence study of ChoKα binding specificity; type: cell-based; settings: fixed permeabilized MDA-MB-231 cells, 2 μM, added before or after ChoKα antibody
T2 construct: endogenous in cells; host or cells: MDA-MB-231 cells (fixed, permeabilized)
T2 sequence (P35790 whole entry): as above
Method: as §1

[6] = test system: MDA-MB-231 tumors; test: In vivo fluorescence distribution in mice bearing MDA-MB-231 tumors; design: species or system athymic nude mice

| Mode of ChoK inhibition [4] | Specificity of binding to ChoKα [5] | Tissue accumulation of probe fluorescence ([6]; 20 nmol i.v., 15 min post-injection, Ex. 745 nm, Em 800 nm) | Fluorescence in background muscle tissue ([6]; excised tissue, dual CCD fluorescence camera) | Structure (SMILES) | Subcellular localization [1] | ChoK inhibition (PC production as % control) [2] | IC50 of ChoK inhibition [2] | Time by which cell uptake is detectable [3] [min] | Cell uptake versus exogenous choline concentration ([3]; MDA-MB-231 cells, 10 μM, 2 hr) | Cell uptake versus probe concentration ([3]; MDA-MB-231 cells, Excitation 640 nm, Emission 770 nm) | Time by which ChoK inhibition is present [2] [min] | Sensitivity of MDA-MB-231 cells versus non-transformed MCF10a cells ([2]; 14 hr incubation, 14C-choline labeling) |
| --- | --- | --- | --- | --- | --- | --- | --- | --- | --- | --- | --- | --- |
| – | – | – | – | CN1\C(=C/C=C/C=C/C=C/C2=[N+](C)c3ccccc3C2(C)C)C(C)(C)c2ccccc21.[I-] [JAS240, 1,3,3-trimethyl-2-((1E,3E,5E)-7-((Z/E)-1,3,3-trimethylindolin-2-ylidene)hepta-1,3,5-trien-1-yl)-3H-indol-1-ium iodide] | localized to the cytoplasm | ChoK inhibition at physiologically-relevant concentrations | comparable to MN58b | – | – | – | – | – |
| competitive inhibitor of ChoK | specific to ChoKα | accumulate in the kidneys and tumor | no fluorescence detectable | CC1(C)C(/C=C/C=C/C=C/C=C2\N(CCO)c3ccccc3C2(C)C)=[N+](CCO)c2ccccc21 [JAS239, 1-(2-hydroxyethyl)-2-((1E,3E,5E)-7-((Z/E)-1-(2-hydroxyethyl)-3,3-dimethylindolin-2-ylidene)hepta-1,3,5-trien-1-yl)-3,3-dimethyl-3H-indol-1-ium chloride] | co-localizes with the cytosolic expression of ChoK | ChoK inhibition at physiologically-relevant concentrations | comparable to MN58b | ≤ 15 | independent of exogenous choline concentration | linearly proportional to concentration | ≤ 60 | greater sensitivity |
